Read-outs that look alike come from different tables or passages of the source. Starred links: 1 amine or outer side, 2 acyl side, 3 side chain; linkers in the order of their positions; H or OH if unused. Non-standard residues stand in square brackets, D forms with d. Residues, ends and D or L forms follow the SMILES beside them. Groups on a side chain read outwards from the residue. No end group written: not given here. *: point of attachment. C20 diacid = O=C(O)CCCCCCCCCCCCCCCCCCC(=O)*; C18 diacid = O=C(O)CCCCCCCCCCCCCCCCC(=O)*; γGlu = O=C(O)[C@H](CCC(=O)[*:2])N[*:1]; AEEA = NCCOCCOCC(=O)O; Aib = CC(C)(N)C(=O)O
How the values were obtained:
[1] = target: T1, human CRF2α receptor (Homo sapiens, UniProt Q13324); assay: cAMP agonism at human CRF2 α receptor in TeloHEAC cells (Example 7); assay type: cell-based; conditions: cAMP HTRF, TeloHEAC cells stably expressing human CRF2 α
T1 construct: expressed in transfected cells; host or cells: TeloHEAC
T1 sequence (Q13324 1-411): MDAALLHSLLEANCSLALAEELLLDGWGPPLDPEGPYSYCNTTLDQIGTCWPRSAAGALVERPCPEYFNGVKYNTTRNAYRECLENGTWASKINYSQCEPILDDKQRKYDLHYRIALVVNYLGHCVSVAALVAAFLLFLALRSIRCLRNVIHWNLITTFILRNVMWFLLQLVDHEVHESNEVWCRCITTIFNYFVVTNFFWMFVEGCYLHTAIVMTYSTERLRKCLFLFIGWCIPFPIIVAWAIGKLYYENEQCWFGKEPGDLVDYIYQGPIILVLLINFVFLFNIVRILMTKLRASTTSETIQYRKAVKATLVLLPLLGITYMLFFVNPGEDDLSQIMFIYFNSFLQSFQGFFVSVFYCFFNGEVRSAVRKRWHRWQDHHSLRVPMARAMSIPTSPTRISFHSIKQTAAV
Outline: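 Steps: thaw and wash cells; suspend in 1×HBSS, 20 mM HEPES, 0 or 0.1% HSA, 2 mM IBMX; add compound, 30 min RT; lyse with HTRF reagents, 1 h; read 665/620 nm. EC50 calculated, E% versus 1000 nM UCN2.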

[2] = target: T2, CRF1R receptor (Homo sapiens, UniProt P34998); assay: cAMP activity at anti-target CRF1R, CRF1R-overexpression CHO cell line (Example 9); assay type: cell-based; conditions: CRF1R-overexpression CHO cell line; for EC50: 0% HSA; for Emax: read-out: Emax (%)
T2 construct: host or cells: CHO-K1 clone 2
T2 sequence (P34998 24-415): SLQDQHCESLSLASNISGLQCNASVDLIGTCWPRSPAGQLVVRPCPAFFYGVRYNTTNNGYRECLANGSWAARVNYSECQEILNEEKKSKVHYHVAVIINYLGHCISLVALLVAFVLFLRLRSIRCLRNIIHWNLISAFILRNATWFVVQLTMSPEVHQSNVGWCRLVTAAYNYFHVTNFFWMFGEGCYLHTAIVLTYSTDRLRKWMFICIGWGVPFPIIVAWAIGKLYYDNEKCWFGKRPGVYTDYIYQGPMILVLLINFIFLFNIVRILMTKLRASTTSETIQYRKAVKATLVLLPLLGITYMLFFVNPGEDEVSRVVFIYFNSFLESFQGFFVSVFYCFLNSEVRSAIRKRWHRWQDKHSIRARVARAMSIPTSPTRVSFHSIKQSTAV
Protocol: Cells were grown in a T175 culture flask placed at 37° C. to near confluence in medium (DMEM/10% FBS) and collected in 2 ml vials in cell culture medium containing 10% DMSO in a concentration of 10-50 million cells/ml. Each vial contained 1.8 ml cells. The vials were slowly frozen to −80° C. in isopropanol and then transferred in liquid nitrogen for storage. Prior to use, frozen cells were thawed quickly at 37° C. and washed (5 min at 900 rpm) with 20 ml cell buffer (1×HBSS; 20 mM HEPES; 0% or 0.1% HSA). Cells were resuspended in assay buffer (cell buffer plus 2 mM IBMX) and adjusted to a cell density of 1 million cells/ml. For measurement, 5 μl cells (final […]) and 5 μL of test compound were added to a 384-well plate, followed by incubation for 30 minutes at room temperature.
The CAMP content of cells was determined using a kit from Cisbio Corp. (cat. no. 62AM4PEC) based on HTRF (Homogenous Time Resolved Fluorescence). […] The percent activity value (E %) was calculated by setting 1000 nM of urocortin 2 (UCN2) as 100%.
A CRF1R-overexpression CHO cell line was used in this study.

[3] = target: T3, CRF1R receptor (anti-target) (UniProt P34998 24-415, limits assumed); assay: cell-based or functional assay
T3 sequence (looked up): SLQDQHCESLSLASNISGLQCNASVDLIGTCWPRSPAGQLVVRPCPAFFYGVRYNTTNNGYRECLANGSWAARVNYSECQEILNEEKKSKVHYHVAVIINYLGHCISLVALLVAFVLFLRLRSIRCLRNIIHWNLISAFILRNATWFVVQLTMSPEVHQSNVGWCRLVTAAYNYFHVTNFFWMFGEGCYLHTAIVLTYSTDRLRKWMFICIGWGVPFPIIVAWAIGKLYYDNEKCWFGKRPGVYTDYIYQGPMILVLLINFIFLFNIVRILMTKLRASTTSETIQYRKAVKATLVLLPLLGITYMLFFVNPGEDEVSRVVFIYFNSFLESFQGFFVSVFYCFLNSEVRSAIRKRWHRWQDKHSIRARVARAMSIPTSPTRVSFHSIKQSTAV

[4] = 0% HSA, read-out: EC50 [nM], 0% HSA
[5] = 0.1% HSA, read-out: EC50 [nM], 0.1% HSA

Row | Molecule | EC50 [1, 4] [nM] | EC50 [1, 5] [nM] | EC50 [2] [nM] | Emax [2] [%] | EC50 [nM] 0% HSA (cAMP, HTRF) [3] [nM] | Emax (%) (100% = Sauvagine at 100 nM) [3]
1 | CC[C@H](C)[C@H](N)C(=O)N[C@H](C(=O)N[C@@H](CC(C)C)C(=O)N[C@@H](CO)C(=O)N[C@@H](CC(C)C)C(=O)N[C@@H](CC(=O)O)C(=O)N[C@@H](C(=O)N1CCC[C@H]1C(=O)N[C@H](C(=O)N[C@@H](CCCCN)C(=O)N[C@@H](CC(C)C)C(=O)N[C@@H](CCCCNC(=O)COCCOCCNC(=O)COCCOCCNC(=O)CC[C@H](NC(=O)CC[C@H](NC(=O)CCCCCCCCCCCCCCCCC(=O)O)C(=O)O)C(=O)O)C(=O)N[C@@H](CCC(N)=O)C(=O)N[C@H](C(=O)N[C@@H](CC(C)C)C(=O)N[C@@H](CC(C)C)C(=O)N[C@@H](CCCCN)C(=O)N[C@@H](CCC(N)=O)C(=O)N[C@@H](CCC(=O)O)C(=O)N[C@@H](CCCNC(=N)N)C(=O)N[C@@H](CCC(N)=O)C(=O)N[C@@H](CCCCN)C(=O)NC(C)(C)C(=O)N[C@@H](CCC(N)=O)C(=O)N[C@@H](CCCNC(=N)N)C(=O)N[C@@H](CCC(=O)O)C(=O)N[C@@H](CCC(N)=O)C(=O)N[C@@H](C)C(=O)N[C@@H](CCC(=O)O)C(=O)N[C@@H](CCCCN)C(=O)N[C@@H](CC(N)=O)C(=O)N[C@@H](CCCCN)C(=O)N[C@@H](CCC(N)=O)C(=O)N[C@H](C(=O)N[C@@H](CC(C)C)C(=O)N[C@@H](C)C(=O)N[C@@H](CCC(N)=O)C(=O)N[C@H](C(N)=O)C(C)C)[C@@H](C)CC)[C@@H](C)CC)[C@@H](C)CC)C(C)C)C(C)C [compound 171] (H-IVLSLD[dV]PIKLK([AEEA-AEEA-γGlu-γGlu-C18 diacid])QILLKQERQK[Aib]QREQAEKNKQILAQV-NH2) | 0.17 | 2.62 | > 1000 | 7.54 | – | –
2 | CC[C@H](C)[C@H](N)C(=O)N[C@H](C(=O)N[C@@H](CC(C)C)C(=O)N[C@@H](CO)C(=O)N[C@@H](CC(C)C)C(=O)N[C@@H](CC(=O)O)C(=O)N[C@@H](C(=O)N1CCC[C@H]1C(=O)N[C@H](C(=O)N[C@@H](CCCCN)C(=O)N[C@@H](CC(C)C)C(=O)N[C@@H](CCCCNC(=O)COCCOCCNC(=O)COCCOCCNC(=O)CC[C@H](NC(=O)CC[C@H](NC(=O)CCCCCCCCCCCCCCCCCCC(=O)O)C(=O)O)C(=O)O)C(=O)N[C@@H](CCC(N)=O)C(=O)N[C@H](C(=O)N[C@@H](CC(C)C)C(=O)N[C@@H](CC(C)C)C(=O)N[C@@H](CCCCN)C(=O)N[C@@H](CCC(N)=O)C(=O)N[C@@H](CCC(=O)O)C(=O)N[C@@H](CCCNC(=N)N)C(=O)N[C@@H](CCC(N)=O)C(=O)N[C@@H](CCCCN)C(=O)NC(C)(C)C(=O)N[C@@H](CCC(N)=O)C(=O)N[C@@H](CCCNC(=N)N)C(=O)N[C@@H](CCC(=O)O)C(=O)N[C@@H](CCC(N)=O)C(=O)N[C@@H](C)C(=O)N[C@@H](CCC(=O)O)C(=O)N[C@@H](CCCCN)C(=O)N[C@@H](CC(N)=O)C(=O)N[C@@H](CCCCN)C(=O)N[C@@H](CCC(N)=O)C(=O)N[C@H](C(=O)N[C@@H](CC(C)C)C(=O)N[C@@H](C)C(=O)N[C@@H](CCC(N)=O)C(=O)N[C@H](C(N)=O)C(C)C)[C@@H](C)CC)[C@@H](C)CC)[C@@H](C)CC)C(C)C)C(C)C [compound 172] (H-IVLSLD[dV]PIKLK([AEEA-AEEA-γGlu-γGlu-C20 diacid])QILLKQERQK[Aib]QREQAEKNKQILAQV-NH2; N-terminus assumed) | 0.04 | 2.76 | > 1000 | 25.6 | – | –
3 | IVLSLDVPIGLK([AEEA-AEEA-γGlu-C18 diacid])QKLLKQQRQRKERQQAEKNARILARV-NH2 (N-terminus assumed; SMILES CC[C@H](C)[C@H](N)C(=O)N[C@H](C(=O)N[C@@H](CC(C)C)C(=O)N[C@@H](CO)C(=O)N[C@@H](CC(C)C)C(=O)N[C@@H](CC(=O)O)C(=O)N[C@H](C(=O)N1CCC[C@H]1C(=O)N[C@H](C(=O)NCC(=O)N[C@@H](CC(C)C)C(=O)N[C@@H](CCCCNC(=O)COCCOCCNC(=O)COCCOCCNC(=O)CC[C@H](NC(=O)CCCCCCCCCCCCCCCCC(=O)O)C(=O)O)C(=O)N[C@@H](CCC(N)=O)C(=O)N[C@@H](CCCCN)C(=O)N[C@@H](CC(C)C)C(=O)N[C@@H](CC(C)C)C(=O)N[C@@H](CCCCN)C(=O)N[C@@H](CCC(N)=O)C(=O)N[C@@H](CCC(N)=O)C(=O)N[C@@H](CCCNC(=N)N)C(=O)N[C@@H](CCC(N)=O)C(=O)N[C@@H](CCCNC(=N)N)C(=O)N[C@@H](CCCCN)C(=O)N[C@@H](CCC(=O)O)C(=O)N[C@@H](CCCNC(=N)N)C(=O)N[C@@H](CCC(N)=O)C(=O)N[C@@H](CCC(N)=O)C(=O)N[C@@H](C)C(=O)N[C@@H](CCC(=O)O)C(=O)N[C@@H](CCCCN)C(=O)N[C@@H](CC(N)=O)C(=O)N[C@@H](C)C(=O)N[C@@H](CCCNC(=N)N)C(=O)N[C@H](C(=O)N[C@@H](CC(C)C)C(=O)N[C@@H](C)C(=O)N[C@@H](CCCNC(=N)N)C(=O)N[C@H](C(N)=O)C(C)C)[C@@H](C)CC)[C@@H](C)CC)C(C)C)C(C)C) [peptide of SEQ ID NO: 16] | – | – | – | – | > 100 | 0.4
4 | IVLSLDVPIKLK([AEEA-AEEA-γGlu-C18 diacid])QILLKQERQK[Aib]QRQKAEKNKQILAQV-NH2 (N-terminus assumed; SMILES CC[C@H](C)[C@H](N)C(=O)N[C@H](C(=O)N[C@@H](CC(C)C)C(=O)N[C@@H](CO)C(=O)N[C@@H](CC(C)C)C(=O)N[C@@H](CC(=O)O)C(=O)N[C@H](C(=O)N1CCC[C@H]1C(=O)N[C@H](C(=O)N[C@@H](CCCCN)C(=O)N[C@@H](CC(C)C)C(=O)N[C@@H](CCCCNC(=O)COCCOCCNC(=O)COCCOCCNC(=O)CC[C@H](NC(=O)CCCCCCCCCCCCCCCCC(=O)O)C(=O)O)C(=O)N[C@@H](CCC(N)=O)C(=O)N[C@H](C(=O)N[C@@H](CC(C)C)C(=O)N[C@@H](CC(C)C)C(=O)N[C@@H](CCCCN)C(=O)N[C@@H](CCC(N)=O)C(=O)N[C@@H](CCC(=O)O)C(=O)N[C@@H](CCCNC(=N)N)C(=O)N[C@@H](CCC(N)=O)C(=O)N[C@@H](CCCCN)C(=O)NC(C)(C)C(=O)N[C@@H](CCC(N)=O)C(=O)N[C@@H](CCCNC(=N)N)C(=O)N[C@@H](CCC(N)=O)C(=O)N[C@@H](CCCCN)C(=O)N[C@@H](C)C(=O)N[C@@H](CCC(=O)O)C(=O)N[C@@H](CCCCN)C(=O)N[C@@H](CC(N)=O)C(=O)N[C@@H](CCCCN)C(=O)N[C@@H](CCC(N)=O)C(=O)N[C@H](C(=O)N[C@@H](CC(C)C)C(=O)N[C@@H](C)C(=O)N[C@@H](CCC(N)=O)C(=O)N[C@H](C(N)=O)C(C)C)[C@@H](C)CC)[C@@H](C)CC)[C@@H](C)CC)C(C)C)C(C)C) [peptide of SEQ ID NO: 22] | – | – | – | – | > 100 | 1.2
